No end group written: not given here.
Experiment: Plasma concentration of infused peptides by radioimmunoassay

Plasma concentration relative to that of progastrin fragment 1‐35 in experiment D (fragment 1‐19 at t150 in part F versus fragment 1‐35 in part D): half
Cmax (human, plasma, iv, 268 pmol/kg/h, SEM): 0.43 ± 0.0899 nM
Sequence: SWKPRSQQPDAPLGTGANR [progastrin fragment 1‐19]
